Measurements taken from the supplement of paper PMC11061612.

What was measured:
Assay in all cases: combination Emax (second highest fraction inhibited in the dose matrix, 72 h); higher = more inhibition; extreme values may be limits of the assay
[1] = system: SK-HEP-1 (Hepatocellular Carcinoma)
Summary of the method: (§1)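 Cell lines in DMEM/F12 or RPMI with 10% FBS were plated in 1536-well plates, held 24 hours at 37°C, 5% CO2, then given two-drug dose matrices for 72 hours (DMSO typically 0.2%). Viability was read by CellTiter-Glo 2.0 luminescence and scaled as inhibition from 0 (vehicle wells) to 1 (blank wells). Combination Emax is the second-highest inhibition in the matrix; Bliss excess is observed combination effect minus expected EA + EB − EA·EB, EA and EB being single-agent effects.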

EW-7 (Ewing's Sarcoma) = system: EW-7 (Ewing's Sarcoma)
Summary of the method: as §1

[2] = system: NCI-H1651 (Lung Adenocarcinoma)
Summary of the method: as §1

[3] = system: KYSE-220 (Esophageal Squamous Cell Carcinoma)
Summary of the method: as §1

[4] = system: SW620 (Colorectal Carcinoma)
Summary of the method: as §1

[5] = system: NCI-H441 (Lung Adenocarcinoma)
Summary of the method: as §1

[6] = system: 22RV1 (Prostate Carcinoma)
Summary of the method: as §1

PEO1 (Ovarian Carcinoma) = system: PEO1 (Ovarian Carcinoma)
Summary of the method: as §1

[7] = system: LU-165 (Small Cell Lung Carcinoma)
Summary of the method: as §1

WM1552C (Melanoma) = system: WM1552C (Melanoma)
Summary of the method: as §1

EB2 (Burkitt's Lymphoma) = system: EB2 (Burkitt's Lymphoma)
Summary of the method: as §1

[8] = system: JHH-2 (Hepatocellular Carcinoma)
Summary of the method: as §1

[9] = system: MDA-MB-436 (Breast Carcinoma)
Summary of the method: as §1

[10] = system: HCC1395 (Breast Carcinoma)
Summary of the method: as §1

[11] = system: NCI-H1703 (Squamous Cell Lung Carcinoma)
Summary of the method: as §1

[12] = system: MHH-ES-1 (Ewing's Sarcoma)
Summary of the method: as §1

HCC70 (Breast Carcinoma) = system: HCC70 (Breast Carcinoma)
Summary of the method: as §1

[13] = system: A2780 (Ovarian Carcinoma)
Summary of the method: as §1

[14] = system: NCI-H2087 (Lung Adenocarcinoma)
Summary of the method: as §1

769-P (Kidney Carcinoma) = system: 769-P (Kidney Carcinoma)
Summary of the method: as §1

Compound	combination Emax [1]	combination Emax (EW-7 (Ewing's Sarcoma))	combination Emax [2]	combination Emax [3]	combination Emax [4]	combination Emax [5]	combination Emax [6]	combination Emax (PEO1 (Ovarian Carcinoma))	combination Emax [7]	combination Emax (WM1552C (Melanoma))	combination Emax (EB2 (Burkitt's Lymphoma))	combination Emax [8]	combination Emax [9]	combination Emax [10]	combination Emax [11]	combination Emax [12]	combination Emax (HCC70 (Breast Carcinoma))	combination Emax [13]	combination Emax [14]	combination Emax (769-P (Kidney Carcinoma))
CN(CCO)CC[C@H](CSc1ccccc1)Nc1ccc(S(=O)(=O)NC(=O)c2ccc(N3CCC([C@@H](O)c4ccccc4-c4ccc(Cl)cc4)CC3)cc2)cc1S(=O)(=O)C(F)(F)F [AZD4320] + C1CN(CCC1(C(=O)N[C@@H](CCO)C2=CC=C(C=C2)Cl)N)C3=NC=NC4=C3C=CN4 [Capivasertib] (first compound max 1 µM, 7x7, partner max 3 µM)	0.245	0.861	0.193	0.237	0.137	0.173	0.471	0.432	0.581	0.183	0.534	0.539	0.142	0.408	0.402	0.48	0.813	0.515	0.232	0.576
CN(CCO)CC[C@H](CSc1ccccc1)Nc1ccc(S(=O)(=O)NC(=O)c2ccc(N3CCC([C@@H](O)c4ccccc4-c4ccc(Cl)cc4)CC3)cc2)cc1S(=O)(=O)C(F)(F)F [AZD4320] + C=CCn1c(=O)c2cnc(Nc3ccc(N4CCN(C)CC4)cc3)nc2n1-c1cccc(C(C)(C)O)n1 [AZD1775] (first compound max 1 µM, partner max 1 µM)	0.327	1	0.746	0.795	0.931	0.552	0.321	0.529	0.681	0.471	0.866	0.604	0.196	0.69	0.972	0.947	0.607	0.666	0.68	0.962
CN(CCO)CC[C@H](CSc1ccccc1)Nc1ccc(S(=O)(=O)NC(=O)c2ccc(N3CCC([C@@H](O)c4ccccc4-c4ccc(Cl)cc4)CC3)cc2)cc1S(=O)(=O)C(F)(F)F [AZD4320] + CC(=O)O[C@H]1C(=O)[C@@]2(C)[C@H]([C@H](OC(=O)c3ccccc3)[C@]3(O)C[C@H](OC(=O)[C@H](O)[C@@H](NC(=O)c4ccccc4)c4ccccc4)C(C)=C1C3(C)C)[C@]1(OC(C)=O)CO[C@@H]1C[C@@H]2O [Paclitaxel] (first compound max 1 µM, 7x7, partner max 3 µM)	0.952	1	0.981	0.793	1	0.735	0.845	0.852	0.88	0.941	0.802	0.93	0.65	0.838	0.976	1	0.875	0.946	0.976	0.958
CN(CCO)CC[C@H](CSc1ccccc1)Nc1ccc(S(=O)(=O)NC(=O)c2ccc(N3CCC([C@@H](O)c4ccccc4-c4ccc(Cl)cc4)CC3)cc2)cc1S(=O)(=O)C(F)(F)F [AZD4320] + CCN(CCO)CCCOc1ccc2c(Nc3cc(CC(=O)Nc4cccc(F)c4)[nH]n3)ncnc2c1 [AZD2811] (first compound max 1 µM, 7x7, partner max 1 µM)	0.793	0.817	0.204	0.196	0.946	0.202	0.259	0.454	0.486	0.481	0.338	0.169	0.0639	0.309	0.473	0.924	0.66	0.49	0.464	0.752
CN(CCO)CC[C@H](CSc1ccccc1)Nc1ccc(S(=O)(=O)NC(=O)c2ccc(N3CCC([C@@H](O)c4ccccc4-c4ccc(Cl)cc4)CC3)cc2)cc1S(=O)(=O)C(F)(F)F [AZD4320] + C[C@@H]1COCCN1C2=NC(=NC(=C2)C3(CC3)[S@](=N)(=O)C)C4=C5C=CNC5=NC=C4 [AZD6738] (first compound max 1 µM, 7x7, partner max 10 µM)	0.411	1	0.728	0.877	0.793	0.69	0.624	0.686	0.776	0.73	0.835	0.792	0.34	0.819	0.892	0.85	0.845	0.799	0.919	0.966
CN(CCO)CC[C@H](CSc1ccccc1)Nc1ccc(S(=O)(=O)NC(=O)c2ccc(N3CCC([C@@H](O)c4ccccc4-c4ccc(Cl)cc4)CC3)cc2)cc1S(=O)(=O)C(F)(F)F [AZD4320] + C[C@@H](Nc1cc(F)cc(F)c1)c1cc(C(=O)N(C)C)cc2c(=O)cc(N3CCOCC3)oc12 [AZD8186] (first compound max 1 µM, 7x7, partner max 3 µM)	0.778	0.947	0.411	0.35	0.84	0.573	0.456	0.613	0.717	0.424	0.536	0.77	0.459	0.476	0.531	0.946	0.781	0.543	0.773	0.341
CN(CCO)CC[C@H](CSc1ccccc1)Nc1ccc(S(=O)(=O)NC(=O)c2ccc(N3CCC([C@@H](O)c4ccccc4-c4ccc(Cl)cc4)CC3)cc2)cc1S(=O)(=O)C(F)(F)F [AZD4320] + Cc1cc2ncnn2cc1Nc1ncc2c(n1)n(C1CCOCC1)c(=O)n2C [AZD7648] (first compound max 1 µM, 7x7, partner max 10 µM)	0.162	0.966	0.16	0.11	0.233	0.198	0.426	0.386	0.516	0.143	0.431	0.448	0.177	0.263	0.322	0.497	0.356	0.51	0.286	0.574
CN(CCO)CC[C@H](CSc1ccccc1)Nc1ccc(S(=O)(=O)NC(=O)c2ccc(N3CCC([C@@H](O)c4ccccc4-c4ccc(Cl)cc4)CC3)cc2)cc1S(=O)(=O)C(F)(F)F [AZD4320] + Cn1cnc2c(F)c(Nc3ccc(Br)cc3Cl)c(C(=O)NOCCO)cc21 [Selumetinib] (first compound max 1 µM, 7x7, partner max 3 µM)	0.603	0.968	0.39	0.505	0.942	0.522	0.453	0.582	0.748	0.558	0.377	0.452	0.335	0.281	0.298	0.951	0.7	0.512	0.908	0.36
CN(CCO)CC[C@H](CSc1ccccc1)Nc1ccc(S(=O)(=O)NC(=O)c2ccc(N3CCC([C@@H](O)c4ccccc4-c4ccc(Cl)cc4)CC3)cc2)cc1S(=O)(=O)C(F)(F)F [AZD4320] + Nc1ccn([C@@H]2O[C@H](CO)[C@@H](O)C2(F)F)c(=O)n1 [Gemcitabine] (first compound max 1 µM, 7x7, partner max 0.3 µM)	0.936	1	0.543	0.674	0.871	0.765	0.748	0.607	0.828	0.817	0.932	0.525	0.531	0.211	0.915	0.964	0.507	0.893	0.881	0.903
Cc1cc2ncnn2cc1Nc1ncc2c(n1)n(C1CCOCC1)c(=O)n2C [AZD7648] + C=CCn1c(=O)c2cnc(Nc3ccc(N4CCN(C)CC4)cc3)nc2n1-c1cccc(C(C)(C)O)n1 [AZD1775] (first compound max 10 µM, partner max 1 µM)	0.513	0.898	0.631	0.882	0.526	0.444	0.46	0.439	0.419	0.551	0.819	0.7	0.362	0.594	0.962	0.686	0.559	0.827	0.353	0.829
Cc1cc2ncnn2cc1Nc1ncc2c(n1)n(C1CCOCC1)c(=O)n2C [AZD7648] + CCN(CCO)CCCOc1ccc2c(Nc3cc(CC(=O)Nc4cccc(F)c4)[nH]n3)ncnc2c1 [AZD2811] (first compound max 10 µM, 7x7, partner max 1 µM)	0.395	0.596	0.264	0.331	0.248	0.309	0.396	0.262	0.288	0.43	0.473	0.446	0.321	0.363	0.688	0.54	0.629	0.686	0.215	0.416
